Assay results: patent publication US10669290B2, “Beta-lactamase inhibitors” (priority 2012, dated 2020)

Columns and labels:
Assay type in all cases: cell-based
[1] = tested on: E. coli ESBL4 CTX-M-15; assay: Broth microdilution MIC, E. coli ESBL4; details: Escherichia coli, ESBL4CTXM15; fixed ceftazidime 4 μg/mL, CAMHB, 16-20 hours 37° C.; read-out: MIC of exemplary compounds in presence of fixed β-lactams, Fixed CAZ, E. coli ESBL4 CTX-M-15
Text: (§1) To determine the ability of test compounds to potentiate the inhibition of the growth of bacterial strains that produce beta-lactamase enzymes, classic cell based broth microdilution MIC assays were employed. Six bacteria strains producing beta-lactamase enzymes were used: E. coli expressing the Class A Extended Spectrum Beta-Lactamase (ESBL) CTX-M-15, E. cloacae expressing the Class C P99, K. pneumoniae expressing the Class A carbapenemase KPC-2, P. aeruginosa expressing the Class B carbapenemase VIM-2, K. pneumoniae expressing the class A carbapenemase KPC-2 and the class B carbapenemase VIM-4, and S. aureus producing the Class A penicillinase PC-1. The assay was conducted in Cation Adjusted Mueller Hinton Broth (CAMHB, BD #212322, BD Diagnostic Systems, Sparks, Md.). Bacteria strains were grown for 3-5 hours in CAMBH broth. Test compounds were added to a microtiter plate in 2-fold serial dilutions in CAMHB in a final concentration range of 32 μg/mL to 0.25 μg/ml. An overlay of CAMHB containing a Beta-lactam was added to the compounds at a final static concentration of 4 μg/ml. […] In addition to the titration of test compounds the MICs of a panel of control beta-lactams is also tested to ensure the strains are behaving consistently from test to test. Once the test compound and antibiotics are added the plates can be inoculated according to CLSI broth microdilution method. After inoculation the plates are incubated for 16-20 hours at 37° C. then the Minimal Inhibitory Concentration (MIC) of the test compound is determined visually.
(§2) Using the methodology described above in EXAMPLE III, exemplary compounds for Formula I or Formula Ia were evaluated for their ability to inhibit the growth of β-lactamase producing bacteria in the presence of a β-lactam antibiotic.

[2] = tested on: E. cl 144200 p99 AmpC; assay: Broth microdilution MIC, E. cloacae 144200; details: Enterobacter cloacae; fixed ceftazidime 4 μg/mL, CAMHB, 16-20 hours 37° C.; read-out: MIC of exemplary compounds in presence of fixed β-lactams, Fixed CAZ, E. cl 144200 p99 AmpC
Text: as §1, §2

[3] = tested on: K.P. 156319 KPC-3; assay: Broth microdilution MIC, K. pneumoniae 156319; details: Klebsiella pneumoniae; fixed meropenem 4 μg/mL, CAMHB, 16-20 hours 37° C.; read-out: MIC of exemplary compounds in presence of fixed β-lactams, Fixed Mero, K.P. 156319 KPC-3
[4] = tested on: P. aerug. Ps296 VIM-2; assay: Broth microdilution MIC, P. aeruginosa Ps296; details: Pseudomonas aeruginosa; fixed meropenem 4 μg/mL, CAMHB, 16-20 hours 37° C.; read-out: MIC of exemplary compounds in presence of fixed β-lactams, Fixed Mero, P. aerug. Ps296 VIM-2
Text: as §1, §2

[5] = tested on: K.P. A-1797 KPC-2 VIM-4; assay: Broth microdilution MIC, K. pneumoniae A-1797; details: Klebsiella pneumoniae; fixed meropenem 4 μg/mL, CAMHB, 16-20 hours 37° C.; read-out: MIC of exemplary compounds in presence of fixed β-lactams, Fixed Mero, K.P. A-1797 KPC-2 VIM-4
Text: as §1, §2

[6] = tested on: S. aureus MSSA-7 PC-1; assay: Broth microdilution MIC, S. aureus MSSA-7; details: Staphylococcus aureus, fixed piperacillin 4 μg/mL, CAMHB, 16-20 hours 37° C., read-out: MIC of exemplary compounds in presence of fixed β-lactams, Fixed Pip, S. aureus MSSA-7 PC-1
Text: as §1, §2

| SMILES | MIC [1] [µg/mL] | MIC [2] [µg/mL] | MIC [3] [µg/mL] | MIC [4] [µg/mL] | MIC [5] [µg/mL] | MIC [6] [µg/mL] |
| --- | --- | --- | --- | --- | --- | --- |
| O=C(CC1CCCCC1)N[C@H]1Cc2cccc(C(=O)O)c2OB1O [Example 31, (R)-3-(2-cyclohexylacetamido)-2-hydroxy-3,4-dihydro-2H-benzo[e][1,2]oxaborinine-8-carboxylic acid] | < 4 | < 4 | 8 to 32 | 8 to 32 | > 32 | < 4 |
| O=C(C[C@H]1CC[C@H](NCc2ccccn2)CC1)N[C@H]1Cc2cccc(C(=O)O)c2OB1O [Example 32, (R)-2-hydroxy-3-(2-(trans-4-(pyridin-2-ylmethylamino)cyclohexyl)acetamido)-3,4-dihydro-2H-benzo[e][1,2]oxaborinine-8-carboxylic acid] | < 4 | < 4 | < 4 | 8 to 32 | > 32 | < 4 |
| O=C(C[C@H]1CC[C@H](NCC2CCNCC2)CC1)N[C@H]1Cc2cccc(C(=O)O)c2OB1O [Example 33, (R)-2-hydroxy-3-(2-(trans-4-(piperidin-4-ylmethylamino)cyclohexyl)acetamido)-3,4-dihydro-2H-benzo[e][1,2]oxaborinine-8-carboxylic acid] | < 4 | < 4 | < 4 | 8 to 32 | 8 to 32 | < 4 |
| N=C(N)N1CCC(CN[C@H]2CC[C@H](CC(=O)N[C@H]3Cc4cccc(C(=O)O)c4OB3O)CC2)CC1 [Example 34, (R)-3-(2-(trans-4-((1-carbamimidoylpiperidin-4-yl)methylamino)cyclohexyl)acetamido)-2-hydroxy-3,4-dihydro-2H-benzo[e][1,2]oxaborinine-8-carboxylic acid] | < 4 | < 4 | < 4 | < 4 | 8 to 32 | < 4 |
| N[C@H]1CC(CC(=O)N[C@H]2Cc3cccc(C(=O)O)c3OB2O)C[C@@H]1N [Example 37] | < 4 | < 4 | < 4 | < 4 | 8 to 32 | < 4 |
| CC(NC(=O)C1C[C@H](N)[C@@H](N)C1)C(=O)N[C@H]1Cc2cccc(C(=O)O)c2OB1O (stereo partly drawn) [Example 38] | < 4 | < 4 | < 4 | < 4 | < 4 | < 4 |
| O=C(C[C@H]1CC[C@H](NCc2nccs2)CC1)N[C@H]1Cc2cccc(C(=O)O)c2OB1O [Example 39] | < 4 | < 4 | < 4 | 8 to 32 | 8 to 32 | < 4 |
| O=C(CC1CCC(N2CCOCC2)CC1)N[C@H]1Cc2cccc(C(=O)O)c2OB1O (stereo partly drawn) [Example 40, (R)-2-hydroxy-3-(2-(4-morpholinocyclohexyl)acetamido)-3,4-dihydro-2H-benzo[e][1,2]oxaborinine-8-carboxylic acid] | < 4 | < 4 | < 4 | > 32 | > 32 | < 4 |
| N[C@@H](C(=O)N[C@H]1Cc2cccc(C(=O)O)c2OB1O)C1CCCCC1 [Example 42, (R)-3-((R)-2-amino-2-cyclohexylacetamido)-2-hydroxy-3,4-dihydro-2H-benzo[e][1,2]oxaborinine-8-carboxylic acid] | < 4 | < 4 | < 4 | < 4 | 8 to 32 | 8 to 32 |
| NCCNC1CCC(O)(CC(=O)N[C@H]2Cc3cccc(C(=O)O)c3OB2O)CC1 (stereo partly drawn) [Example 43, 3-{2-[4-(2-Amino-ethylamino)-1-hydroxy-cyclohexyl]-acetylamino}-2-hydroxy-3,4-dihydro-2H-benzo[e][1,2]oxaborinine-8-carboxylic acid] | < 4 | < 4 | < 4 | < 4 | > 32 | < 4 |
| NC1CCC(O)(CC(=O)N[C@H]2Cc3cccc(C(=O)O)c3OB2O)CC1 (stereo partly drawn) [Example 44, 3-[2-(4-Amino-1-hydroxy-cyclohexyl)-acetylamino]-2-hydroxy-3,4-dihydro-2H-benzo[e][1,2]oxaborinine-8-carboxylic acid] | < 4 | < 4 | < 4 | 8 to 32 | < 4 | 8 to 32 |
| N[C@H]1CC[C@H](NCC(=O)N[C@H]2Cc3cccc(C(=O)O)c3OB2O)CC1 [Example 45, 3-[2-(4-Amino-cyclohexylamino)-acetylamino]-2-hydroxy-3,4-dihydro-2H-benzo[e][1,2]oxaborinine-8-carboxylic acid] | < 4 | < 4 | < 4 | 8 to 32 | 8 to 32 | < 4 |
| NCCN[C@H]1CC[C@@H](CC(=O)N[C@H]2Cc3cccc(C(=O)O)c3OB2O)CC1 [Example 46, (R)-3-(2-(cis-4-(2-aminoethylamino)cyclohexyl)acetamido)-2-hydroxy-3,4-dihydro-2H-benzo[e][1,2]oxaborinine-8-carboxylic acid] | < 4 | < 4 | < 4 | < 4 | < 4 | < 4 |
| O=C(C[C@H]1CC[C@H](NCCNc2ccccn2)CC1)N[C@H]1Cc2cccc(C(=O)O)c2OB1O [Example 48, (R)-2-hydroxy-3-(2-(trans-4-(2-(pyridin-2-ylamino)ethylamino)cyclohexyl)acetamido)-3,4-dihydro-2H-benzo[e][1,2]oxaborinine-8-carboxylic acid] | < 4 | < 4 | < 4 | 8 to 32 | 8 to 32 | < 4 |
| CS(=O)(=O)NCCN[C@H]1CC[C@H](CC(=O)N[C@H]2Cc3cccc(C(=O)O)c3OB2O)CC1 [Example 49, (R)-2-hydroxy-3-(2-(trans-4-(2-(methylsulfonamido)ethylamino)cyclohexyl)acetamido)-3,4-dihydro-2H-benzo[e][1,2]oxaborinine-8-carboxylic acid] | < 4 | < 4 | < 4 | 8 to 32 | 8 to 32 | < 4 |
| NCCN[C@H]1CC[C@H](CC(=O)N[C@@H]2Cc3cccc(C(=O)O)c3OB2O)CC1 [Example 50, (S)-3-(2-(trans-4-(2-aminoethylamino)cyclohexyl)acetamido)-2-hydroxy-3,4-dihydro-2H-benzo[e][1,2]oxaborinine-8-carboxylic acid] | < 4 | < 4 | > 32 | < 4 | 8 to 32 | < 4 |
| CNCCN[C@H]1CC[C@H](CC(=O)N[C@H]2Cc3cccc(C(=O)O)c3OB2O)CC1 [Example 51, (R)-2-hydroxy-3-(2-(trans-4-(2-(methylamino)ethylamino)cyclohexyl)acetamido)-3,4-dihydro-2H-benzol[e][1,2]oxaborinine-8-carboxylic acid] | < 4 | < 4 | < 4 | < 4 | < 4 | < 4 |
| CN1CCN([C@H]2CC[C@H](CC(=O)N[C@H]3Cc4cccc(C(=O)O)c4OB3O)CC2)C1=N [Example 52, (R)-2-hydroxy-3-(2-(trans-4-(2-imino-3-methylimidazolidin-1-yl)cyclohexyl)acetamido)-3,4-dihydro-2H-benzo[e][1,2]oxaborinine-8-carboxylic acid] | < 4 | < 4 | 8 to 32 | > 32 | > 32 | < 4 |
